Test results reported in US20250027035A1, “HEAVY METAL-ANTIBIOTIC MULTIPLE RESISTANT BACTERIA AND ITS APPLICATION” (priority 2023, published 2025).

Assays:
[1] = tested on: Rossellomorea oryzaecorticis ZC255; test: Drug sensitivity test of strains (antibiotic tolerance); format: cell-based; as to Results of drug sensitivity test of strains: key: R: resistance; S: sensitivity; I: betweenness
[2] = tested on: Rossellomorea oryzaecorticis ZC255; test: Metal tolerance of the strain in 2216E liquid medium containing heavy metal; format: cell-based; conditions: 2216E liquid medium containing the heavy metal
Description: • Step 1: the single colonies in Embodiment 1 ‘2.1 morphological characteristics’ are selected and added to the 2216E liquid medium for 24 h to obtain the seed liquid, and then it is added to the liquid containing heavy metals or antibiotics for 48 h. • Step 2: the concentration of heavy metals/antibiotics before and after the addition of seed solution is measured by atomic absorption.
In addition, the highest tolerance concentration of the strain to Cd2+is 820 mg/L; the highest tolerance concentration of Zn2+, Ni2+, Pb2+and Cr3+is 2660 mg/L, 1210 mg/L, 1640 mg/L and 400 mg/L respectively.

Row | Molecule | Results of drug sensitivity test of strains [1] | maximum (highest) tolerance concentration of the strain [2] | drug sensitivity of the strain, result in words [1]
1 | CC1(C)S[C@@H]2[C@H](NC(=O)[C@H](N)c3ccccc3)C(=O)N2[C@H]1C(=O)O [Ampicillin] | S |  | 
2 | CC1(C)S[C@@H]2[C@H](NC(=O)C(C(=O)O)c3ccccc3)C(=O)N2[C@H]1C(=O)O (stereo partly shown) [Carbenicillin] | S |  | 
3 | [Cd+2] [Cd2+] |  | 820 mg/L | 
4 | CO/N=C(\C(=O)N[C@@H]1C(=O)N2C(C(=O)O)=C(COC(C)=O)CS[C@H]12)c1csc(N)n1 [Cefotaxime] | I |  | 
5 | CO/N=C(\C(=O)N[C@@H]1C(=O)N2C(C(=O)O)=C(CSc3nc(=O)c(=O)[nH]n3C)CS[C@H]12)c1csc(N)n1 [Ceftriaxone] | R |  | drug resistance
6 | O=C(N[C@H](CO)[C@H](O)c1ccc([N+](=O)[O-])cc1)C(Cl)Cl [Chloramphenicol] | S |  | 
7 | CC[C@H]1OC(=O)[C@H](C)[C@@H](O[C@H]2C[C@@](C)(OC)[C@@H](O)[C@H](C)O2)[C@H](C)[C@@H](O[C@@H]2O[C@H](C)C[C@H](N(C)C)[C@H]2O)[C@](C)(OC)C[C@@H](C)C(=O)[C@H](C)[C@@H](O)[C@]1(C)O [Clarithromycin] | S |  | 
8 | [Cr+3] [Cr3+] |  | 400 mg/L | 
9 | CC[C@H]1OC(=O)[C@H](C)[C@@H](O[C@H]2C[C@@](C)(OC)[C@@H](O)[C@H](C)O2)[C@H](C)[C@@H](O[C@@H]2O[C@H](C)C[C@H](N(C)C)[C@H]2O)[C@](C)(O)C[C@@H](C)C(=O)[C@H](C)[C@@H](O)[C@]1(C)O [Erythromycin] | R |  | drug resistance
10 | NC[C@H]1O[C@H](O[C@H]2[C@H](O)[C@@H](O[C@H]3O[C@H](CO)[C@@H](O)[C@H](N)[C@H]3O)[C@H](N)C[C@@H]2N)[C@H](O)[C@@H](O)[C@@H]1O [Kanamycin] | R |  | 
11 | CCC[C@@H]1C[C@@H](C(=O)N[C@@H]([C@H]2O[C@H](SC)[C@H](O)[C@@H](O)[C@H]2O)[C@@H](C)O)N(C)C1 [Lincomycin] | R |  | drug resistance
12 | [Ni+2] [Ni2+] |  | 1210 mg/L | 
13 | CCn1cc(C(=O)O)c(=O)c2cc(F)c(N3CCNCC3)cc21 [Norfloxacin] | R |  | drug resistance
14 | CC1COc2c(N3CCN(C)CC3)c(F)cc3c(=O)c(C(=O)O)cn1c23 (stereo not shown) [Ofloxacin] | R |  | 
15 | [Pb+2] [Pb2+] |  | 1640 mg/L | 
16 | CO[C@H]1/C=C/O[C@@]2(C)Oc3c(C)c(O)c4c(O)c(c(/C=N/N5CCN(C)CC5)c(O)c4c3C2=O)NC(=O)/C(C)=C\C=C\[C@H](C)[C@H](O)[C@@H](C)[C@@H](O)[C@@H](C)[C@H](OC(C)=O)[C@@H]1C [Rifampicin] | I |  | 
17 | [H]/N=C(/N)N[C@H]1[C@H](O)[C@@H](O)[C@H](O[C@@H]2O[C@@H](C)[C@](O)(C=O)[C@H]2O[C@@H]2O[C@@H](CO)[C@H](O)[C@@H](O)[C@@H]2NC)[C@@H](N/C(N)=N\[H])[C@@H]1O [Streptomycin] | R |  | drug resistance
18 | CN(C)[C@@H]1C(O)=C(C(N)=O)C(=O)[C@@]2(O)C(O)=C3C(=O)c4c(O)cccc4[C@@](C)(O)[C@H]3C[C@@H]12 [Tetracycline] | R |  | 
19 | NC[C@H]1O[C@H](O[C@H]2[C@H](O)[C@@H](O[C@H]3O[C@H](CO)[C@@H](O)[C@H](N)[C@H]3O)[C@H](N)C[C@@H]2N)[C@H](N)C[C@@H]1O [Tobramycin] | R |  | drug resistance
20 | CN[C@H](CC(C)C)C(=O)N[C@H]1C(=O)N[C@@H](CC(N)=O)C(=O)N[C@H]2C(=O)N[C@H]3C(=O)N[C@H](C(=O)N[C@H](C(=O)O)c4cc(O)cc(O)c4-c4cc3ccc4O)[C@H](O)c3ccc(c(Cl)c3)Oc3cc2cc(c3O[C@@H]2O[C@H](CO)[C@@H](O)[C@H](O)[C@H]2O[C@H]2C[C@](C)(N)[C@H](O)[C@H](C)O2)Oc2ccc(cc2Cl)[C@H]1O [Vancomycin] | S |  | 
21 | [Zn+2] [Zn2+] |  | 2660 mg/L | 
22 | Gentamicin | R |  | drug resistance
23 | Neomycin | R |  | drug resistance
24 | Penicillin | S |  | 
25 | Polymyxin B | R |  | drug resistance
